Results as given in ChEMBL document CHEMBL4834412, “2,4,5-Trisubstituted Pyrimidines as Potent HIV-1 NNRTIs: Rational Design, Synthesis, Activity Evaluation, and Crystallographic Studies” (J Med Chem, 2021).

test system: Human immunodeficiency virus 1; assay: Antiviral activity against NNRTI-resistant HIV-1 RES056 harboring RT K103N/Y181C mutant infected in human MT4 cells assessed as protection against virus-induced cytopathogenicity after 5 days by MTT assay; assay type: functional, organism-based; details: Human immunodeficiency virus 1, RES056, MT4, 120 h

Row | SMILES | EC50 [nM]
1 | Cc1cc(/C=C/C#N)cc(C)c1Oc1nc(NC2CCN(Cc3ccc(C(N)=O)cc3)CC2)ncc1-c1ccc(N)nc1 | 30.2
2 | Cc1cc(/C=C/C#N)cc(C)c1Oc1nc(NC2CCN(Cc3ccc(S(N)(=O)=O)cc3)CC2)ncc1-c1ccc(N)nc1 | 33.5
3 | Cc1cc(/C=C/C#N)cc(C)c1Oc1nc(NC2CCN(Cc3ccc(S(N)(=O)=O)cc3)CC2)ncc1-c1ccnc(Cl)c1 | 20.9
4 | Cc1cc(/C=C/C#N)cc(C)c1Oc1nc(NC2CCN(Cc3ccc(C(N)=O)cc3)CC2)ncc1-c1cccnc1 | 23.1
5 | Cc1cc(-c2cnc(NC3CCN(Cc4ccc(C(N)=O)cc4)CC3)nc2Oc2c(C)cc(/C=C/C#N)cc2C)ccn1 | 18.1
6 | Cc1cc(C#N)cc(C)c1Oc1nc(NC2CCN(Cc3ccc(S(N)(=O)=O)cc3)CC2)ncc1-c1ccncc1 | 111
7 | Cc1cc(/C=C/C#N)cc(C)c1Oc1nc(NC2CCN(Cc3ccc(S(N)(=O)=O)cc3)CC2)ncc1-c1ccncc1 | 22.9
8 | Cc1cc(C#N)cc(C)c1Oc1nc(NC2CCN(Cc3ccc(S(C)(=O)=O)cc3)CC2)ncc1-c1cccs1 | 134
9 | Cc1cc(/C=C/C#N)cc(C)c1Oc1nc(NC2CCN(Cc3ccc(C(N)=O)cc3)CC2)ncc1-c1ccc(F)nc1 | 20.4
10 | Cc1cc(C#N)cc(C)c1Oc1nc(NC2CCN(Cc3ccc(C(N)=O)cc3)CC2)ncc1-c1cccs1 | 115
11 | Cc1cc(C#N)cc(C)c1Oc1nc(NC2CCN(Cc3ccc(S(C)(=O)=O)cc3)CC2)ncc1-c1ccsc1 | 253
12 | Cc1cc(/C=C/C#N)cc(C)c1Oc1nc(NC2CCN(Cc3ccc(S(C)(=O)=O)cc3)CC2)ncc1-c1ccncc1 | 26.3
13 | Cc1cc(/C=C/C#N)cc(C)c1Oc1nc(NC2CCN(Cc3ccc(S(N)(=O)=O)cc3)CC2)ncc1-c1ccnc(F)c1 | 38.8
14 | Cc1cc(/C=C/C#N)cc(C)c1Oc1nc(NC2CCN(Cc3ccc(S(C)(=O)=O)cc3)CC2)ncc1-c1ccc(N)nc1 | 26.2

test system: Human immunodeficiency virus 1; assay: Antiviral activity against HIV-1 strain IIIB infected in human MT4 cells assessed as protection against virus-induced cytopathicity after 5 days by MTT assay; assay type: functional, organism-based; details: Human immunodeficiency virus 1, IIIB, MT4, 120 h

Row | SMILES | EC50 [nM]
15 | Cc1cc(/C=C/C#N)cc(C)c1Oc1nc(NC2CCN(Cc3ccc(C(N)=O)cc3)CC2)ncc1-c1ccc(N)nc1 | 6.56
16 | Cc1cc(/C=C/C#N)cc(C)c1Oc1nc(NC2CCN(Cc3ccc(S(N)(=O)=O)cc3)CC2)ncc1-c1ccc(N)nc1 | 5.8
17 | Cc1cc(/C=C/C#N)cc(C)c1Oc1nc(NC2CCN(Cc3ccc(S(N)(=O)=O)cc3)CC2)ncc1-c1ccnc(Cl)c1 | 4.3
18 | Cc1cc(/C=C/C#N)cc(C)c1Oc1nc(NC2CCN(Cc3ccc(C(N)=O)cc3)CC2)ncc1-c1cccnc1 | 4.78
19 | Cc1cc(-c2cnc(NC3CCN(Cc4ccc(C(N)=O)cc4)CC3)nc2Oc2c(C)cc(/C=C/C#N)cc2C)ccn1 | 3.53
20 | Cc1cc(C#N)cc(C)c1Oc1nc(NC2CCN(Cc3ccc(S(N)(=O)=O)cc3)CC2)ncc1-c1ccncc1 | 2.59
21 | Cc1cc(/C=C/C#N)cc(C)c1Oc1nc(NC2CCN(Cc3ccc(S(N)(=O)=O)cc3)CC2)ncc1-c1ccncc1 | 4.6
22 | Cc1cc(C#N)cc(C)c1Oc1nc(NC2CCN(Cc3ccc(S(C)(=O)=O)cc3)CC2)ncc1-c1cccs1 | 4.01
23 | Cc1cc(/C=C/C#N)cc(C)c1Oc1nc(NC2CCN(Cc3ccc(C(N)=O)cc3)CC2)ncc1-c1ccc(F)nc1 | 4.56
24 | Cc1cc(C#N)cc(C)c1Oc1nc(NC2CCN(Cc3ccc(C(N)=O)cc3)CC2)ncc1-c1cccs1 | 3.34
25 | Cc1cc(C#N)cc(C)c1Oc1nc(NC2CCN(Cc3ccc(S(C)(=O)=O)cc3)CC2)ncc1-c1ccsc1 | 4.92
26 | Cc1cc(/C=C/C#N)cc(C)c1Oc1nc(NC2CCN(Cc3ccc(S(C)(=O)=O)cc3)CC2)ncc1-c1ccncc1 | 5.74
27 | Cc1cc(/C=C/C#N)cc(C)c1Oc1nc(NC2CCN(Cc3ccc(S(N)(=O)=O)cc3)CC2)ncc1-c1ccnc(F)c1 | 6.37
28 | Cc1cc(/C=C/C#N)cc(C)c1Oc1nc(NC2CCN(Cc3ccc(S(C)(=O)=O)cc3)CC2)ncc1-c1ccc(N)nc1 | 5.29

test system: Human immunodeficiency virus 1; assay: Antiviral activity against HIV-1 harboring RT Y181C mutant infected in human MT4 cells assessed as protection against virus-induced cytopathogenicity after 5 days by MTT assay; assay type: functional, organism-based; details: Human immunodeficiency virus 1, MT4, 120 h

Row | SMILES | EC50 [nM]
29 | Cc1cc(/C=C/C#N)cc(C)c1Oc1nc(NC2CCN(Cc3ccc(C(N)=O)cc3)CC2)ncc1-c1ccc(N)nc1 | 12
30 | Cc1cc(/C=C/C#N)cc(C)c1Oc1nc(NC2CCN(Cc3ccc(C(N)=O)cc3)CC2)ncc1-c1cccnc1 | 10.1
31 | Cc1cc(C#N)cc(C)c1Oc1nc(NC2CCN(Cc3ccc(S(N)(=O)=O)cc3)CC2)ncc1-c1ccncc1 | 6.93
32 | Cc1cc(/C=C/C#N)cc(C)c1Oc1nc(NC2CCN(Cc3ccc(S(N)(=O)=O)cc3)CC2)ncc1-c1ccncc1 | 24.2
33 | Cc1cc(C#N)cc(C)c1Oc1nc(NC2CCN(Cc3ccc(S(C)(=O)=O)cc3)CC2)ncc1-c1cccs1 | 11.6
34 | Cc1cc(/C=C/C#N)cc(C)c1Oc1nc(NC2CCN(Cc3ccc(C(N)=O)cc3)CC2)ncc1-c1ccc(F)nc1 | 10.3
35 | Cc1cc(C#N)cc(C)c1Oc1nc(NC2CCN(Cc3ccc(C(N)=O)cc3)CC2)ncc1-c1cccs1 | 10.2
36 | Cc1cc(C#N)cc(C)c1Oc1nc(NC2CCN(Cc3ccc(S(C)(=O)=O)cc3)CC2)ncc1-c1ccsc1 | 11.7

test system: Human immunodeficiency virus 1; assay: Antiviral activity against HIV-1 harboring RT L100I mutant infected in human MT4 cells assessed as protection against virus-induced cytopathogenicity after 5 days by MTT assay; assay type: functional, organism-based; details: Human immunodeficiency virus 1, MT4, 120 h

Row | SMILES | EC50 [nM]
37 | Cc1cc(/C=C/C#N)cc(C)c1Oc1nc(NC2CCN(Cc3ccc(C(N)=O)cc3)CC2)ncc1-c1ccc(N)nc1 | 11.3
38 | Cc1cc(/C=C/C#N)cc(C)c1Oc1nc(NC2CCN(Cc3ccc(C(N)=O)cc3)CC2)ncc1-c1cccnc1 | 10.8
39 | Cc1cc(C#N)cc(C)c1Oc1nc(NC2CCN(Cc3ccc(S(N)(=O)=O)cc3)CC2)ncc1-c1ccncc1 | 10.6
40 | Cc1cc(/C=C/C#N)cc(C)c1Oc1nc(NC2CCN(Cc3ccc(S(N)(=O)=O)cc3)CC2)ncc1-c1ccncc1 | 5.87
41 | Cc1cc(C#N)cc(C)c1Oc1nc(NC2CCN(Cc3ccc(S(C)(=O)=O)cc3)CC2)ncc1-c1cccs1 | 8.93
42 | Cc1cc(/C=C/C#N)cc(C)c1Oc1nc(NC2CCN(Cc3ccc(C(N)=O)cc3)CC2)ncc1-c1ccc(F)nc1 | 5.76
43 | Cc1cc(C#N)cc(C)c1Oc1nc(NC2CCN(Cc3ccc(C(N)=O)cc3)CC2)ncc1-c1cccs1 | 14.7
44 | Cc1cc(C#N)cc(C)c1Oc1nc(NC2CCN(Cc3ccc(S(C)(=O)=O)cc3)CC2)ncc1-c1ccsc1 | 20.3

test system: Human immunodeficiency virus 1; assay: Antiviral activity against HIV-1 harboring RT Y188L mutant infected in human MT4 cells assessed as protection against virus-induced cytopathogenicity after 5 days by MTT assay; assay type: functional, organism-based; details: Human immunodeficiency virus 1, MT4, 120 h

Row | SMILES | EC50 [nM]
45 | Cc1cc(/C=C/C#N)cc(C)c1Oc1nc(NC2CCN(Cc3ccc(C(N)=O)cc3)CC2)ncc1-c1ccc(N)nc1 | 54.2
46 | Cc1cc(/C=C/C#N)cc(C)c1Oc1nc(NC2CCN(Cc3ccc(C(N)=O)cc3)CC2)ncc1-c1cccnc1 | 25.5
47 | Cc1cc(C#N)cc(C)c1Oc1nc(NC2CCN(Cc3ccc(S(N)(=O)=O)cc3)CC2)ncc1-c1ccncc1 | 21.4
48 | Cc1cc(/C=C/C#N)cc(C)c1Oc1nc(NC2CCN(Cc3ccc(S(N)(=O)=O)cc3)CC2)ncc1-c1ccncc1 | 27.1
49 | Cc1cc(C#N)cc(C)c1Oc1nc(NC2CCN(Cc3ccc(S(C)(=O)=O)cc3)CC2)ncc1-c1cccs1 | 15.4
50 | Cc1cc(/C=C/C#N)cc(C)c1Oc1nc(NC2CCN(Cc3ccc(C(N)=O)cc3)CC2)ncc1-c1ccc(F)nc1 | 30.1
51 | Cc1cc(C#N)cc(C)c1Oc1nc(NC2CCN(Cc3ccc(C(N)=O)cc3)CC2)ncc1-c1cccs1 | 17.9
52 | Cc1cc(C#N)cc(C)c1Oc1nc(NC2CCN(Cc3ccc(S(C)(=O)=O)cc3)CC2)ncc1-c1ccsc1 | 27.2

test system: Human immunodeficiency virus 1; assay: Antiviral activity against HIV-1 harboring RT F227L/V106A mutant infected in human MT4 cells assessed as protection against virus-induced cytopathogenicity after 5 days by MTT assay; assay type: functional, organism-based; details: Human immunodeficiency virus 1, MT4, 120 h

Row | SMILES | EC50 [nM]
53 | Cc1cc(/C=C/C#N)cc(C)c1Oc1nc(NC2CCN(Cc3ccc(C(N)=O)cc3)CC2)ncc1-c1ccc(N)nc1 | 15.4
54 | Cc1cc(/C=C/C#N)cc(C)c1Oc1nc(NC2CCN(Cc3ccc(C(N)=O)cc3)CC2)ncc1-c1cccnc1 | 21.7
55 | Cc1cc(C#N)cc(C)c1Oc1nc(NC2CCN(Cc3ccc(S(N)(=O)=O)cc3)CC2)ncc1-c1ccncc1 | 45.9
56 | Cc1cc(/C=C/C#N)cc(C)c1Oc1nc(NC2CCN(Cc3ccc(S(N)(=O)=O)cc3)CC2)ncc1-c1ccncc1 | 23.7
57 | Cc1cc(C#N)cc(C)c1Oc1nc(NC2CCN(Cc3ccc(S(C)(=O)=O)cc3)CC2)ncc1-c1cccs1 | 38.4
58 | Cc1cc(/C=C/C#N)cc(C)c1Oc1nc(NC2CCN(Cc3ccc(C(N)=O)cc3)CC2)ncc1-c1ccc(F)nc1 | 27.5
59 | Cc1cc(C#N)cc(C)c1Oc1nc(NC2CCN(Cc3ccc(C(N)=O)cc3)CC2)ncc1-c1cccs1 | 75.4
60 | Cc1cc(C#N)cc(C)c1Oc1nc(NC2CCN(Cc3ccc(S(C)(=O)=O)cc3)CC2)ncc1-c1ccsc1 | 67.5

test system: Human immunodeficiency virus 1; assay: Antiviral activity against HIV-1 harboring RT K103N mutant infected in human MT4 cells assessed as protection against virus-induced cytopathogenicity after 5 days by MTT assay; assay type: functional, organism-based; details: Human immunodeficiency virus 1, MT4, 120 h

Row | SMILES | EC50 [nM]
61 | Cc1cc(/C=C/C#N)cc(C)c1Oc1nc(NC2CCN(Cc3ccc(C(N)=O)cc3)CC2)ncc1-c1ccc(N)nc1 | 6.66
62 | Cc1cc(/C=C/C#N)cc(C)c1Oc1nc(NC2CCN(Cc3ccc(C(N)=O)cc3)CC2)ncc1-c1cccnc1 | 5.76
63 | Cc1cc(C#N)cc(C)c1Oc1nc(NC2CCN(Cc3ccc(S(N)(=O)=O)cc3)CC2)ncc1-c1ccncc1 | 2.33
64 | Cc1cc(/C=C/C#N)cc(C)c1Oc1nc(NC2CCN(Cc3ccc(S(N)(=O)=O)cc3)CC2)ncc1-c1ccncc1 | 4.91
65 | Cc1cc(C#N)cc(C)c1Oc1nc(NC2CCN(Cc3ccc(S(C)(=O)=O)cc3)CC2)ncc1-c1cccs1 | 5.71
66 | Cc1cc(/C=C/C#N)cc(C)c1Oc1nc(NC2CCN(Cc3ccc(C(N)=O)cc3)CC2)ncc1-c1ccc(F)nc1 | 5.97
67 | Cc1cc(C#N)cc(C)c1Oc1nc(NC2CCN(Cc3ccc(C(N)=O)cc3)CC2)ncc1-c1cccs1 | 5.15
68 | Cc1cc(C#N)cc(C)c1Oc1nc(NC2CCN(Cc3ccc(S(C)(=O)=O)cc3)CC2)ncc1-c1ccsc1 | 4.75

test system: Human immunodeficiency virus 1; assay: Antiviral activity against HIV-1 harboring RT E138K mutant infected in human MT4 cells assessed as protection against virus-induced cytopathogenicity after 5 days by MTT assay; assay type: functional, organism-based; details: Human immunodeficiency virus 1, MT4, 120 h

Row | SMILES | EC50 [nM]
69 | Cc1cc(/C=C/C#N)cc(C)c1Oc1nc(NC2CCN(Cc3ccc(C(N)=O)cc3)CC2)ncc1-c1ccc(N)nc1 | 15.4
70 | Cc1cc(/C=C/C#N)cc(C)c1Oc1nc(NC2CCN(Cc3ccc(C(N)=O)cc3)CC2)ncc1-c1cccnc1 | 11.3
71 | Cc1cc(C#N)cc(C)c1Oc1nc(NC2CCN(Cc3ccc(S(N)(=O)=O)cc3)CC2)ncc1-c1ccncc1 | 8.12
72 | Cc1cc(/C=C/C#N)cc(C)c1Oc1nc(NC2CCN(Cc3ccc(S(N)(=O)=O)cc3)CC2)ncc1-c1ccncc1 | 11.1
73 | Cc1cc(C#N)cc(C)c1Oc1nc(NC2CCN(Cc3ccc(S(C)(=O)=O)cc3)CC2)ncc1-c1cccs1 | 6.27
74 | Cc1cc(/C=C/C#N)cc(C)c1Oc1nc(NC2CCN(Cc3ccc(C(N)=O)cc3)CC2)ncc1-c1ccc(F)nc1 | 11.7
75 | Cc1cc(C#N)cc(C)c1Oc1nc(NC2CCN(Cc3ccc(C(N)=O)cc3)CC2)ncc1-c1cccs1 | 8.85
76 | Cc1cc(C#N)cc(C)c1Oc1nc(NC2CCN(Cc3ccc(S(C)(=O)=O)cc3)CC2)ncc1-c1ccsc1 | 10.6
